# Values joined by “and” are separate entries in the source; they are usually repeats but may differ in a detail not shown here. Equal values may be shown once. Read-outs that look alike come from different tables or passages of the source. No end group written: not given here.
# Key:
# P. aeruginosa H374 [1] = format: cell-based, Pseudomonas aeruginosa; settings: Table 9; in µg/mL
# [2] = tested on: Pseudomonas aeruginosa H187; format: cell-based; settings: in µg/mL
# [3] = tested on: Pseudomonas aeruginosa 100609; format: cell-based; settings: Table 9; in µg/mL
# [4] = tested on: Pseudomonas aeruginosa 105663; format: cell-based; settings: Table 9; in µg/mL
# [5] = tested on: Candida glabrata ATCC15126; test: Antimicrobial assays II, NCCLS broth microdilution MIC; format: cell-based; settings: Table 8; in µg/mL
# [6] = tested on: Pseudomonas aeruginosa ATCC 9027; test: Antimicrobial assay I, MIC by OD measurement; format: cell-based; settings: 37° C. for 24 hours, absorbance 620 nm
# [7] = tested on: Staphylococcus aureus ATCC 6538; test: Antimicrobial assay I, MIC by OD measurement; format: cell-based; settings: 37° C. for 24 hours, absorbance 620 nm
# [8] = tested on: yeast (Saccharomyces cerevisiae); test: Antimicrobial assay I, yeast assay in RPMI 1640; format: cell-based; settings: RPMI 1640 media
# S. aureus (MRSA) = format: cell-based, Staphylococcus aureus; settings: mean of three; 16 to 20 hours at 35° C.
# S. epidermidis C621 = format: cell-based, Staphylococcus epidermidis; settings: mean of three; 16 to 20 hours at 35° C.
# S. pyogenes M76 = test: Antimicrobial assays II, NCCLS broth microdilution MIC; format: cell-based, Streptococcus pyogenes; settings: mean of three; 16 to 20 hours at 35° C.
# S. pyogenes ATCC19615 = test: as above; format: cell-based, Streptococcus pyogenes; settings: mean of three, in µg/mL
# S. pneumoniae C718 = test: as above; format: cell-based, Streptococcus pneumoniae; settings: mean of three
# S. pneumoniae C719 = test: as above; format: cell-based, Streptococcus pneumoniae; settings: mean of three, in µg/mL
# BMKC = test: Anti-cancer assay, MTT, LD50; format: cell-based; settings: BMKC cloned melanoma line, 24 hours with peptide
# Text: (§1) Numbers are LD50 values (μg/mL).
# H1299 = test: Anti-cancer assay, MTT, LD50; format: cell-based; settings: 24 hours with peptide, lung large cell carcinoma
# Text: as §1
# MCF7 = test: Anti-cancer assay, MTT, LD50; format: cell-based; settings: MCF7 breast adenocarcinoma line, MTT, 24 hours with peptide
# Text: as §1
# PC3 = test: Anti-cancer assay, MTT, LD50; format: cell-based; settings: 24 hours with peptide, prostate adenocarcinoma
# Text: as §1
# SW480 = test: Anti-cancer assay, MTT, LD50; format: cell-based; settings: SW480 colon adenocarcinoma line, 24 hours with peptide
# Text: as §1
# in vitro [9] = format: cell-based, human; settings: human, human red blood cells, pH 7, hemolytic assay, concentration at 50% hemolysis, 1 hour at 37° C.; read-out: LD50
# P. aeruginosa H374 [10] = format: cell-based, Pseudomonas aeruginosa; settings: for MIC Cm-comb.: MIC of chloramphenicol with peptide at ¼ MIC; for MIC Nal-comb.: MIC of nalidixic acid with peptide at ¼ MIC; for FIC Index: 0.5 or less = synergy
# How it was run: (§2)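 FIC index, computed as 0.25 plus the ratio of combination to single-agent antibiotic MIC, defines synergy when 0.5 or below. Peptide fixed at one quarter MIC while chloramphenicol or nalidixic acid was serially diluted two-fold; antibiotic-alone MICs served as baselines.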
# P. aeruginosa H774 = format: cell-based, Pseudomonas aeruginosa; settings: P. aeruginosa H744; nalidixic acid + peptide at ¼ MIC; 0.5 or less = synergy
# How it was run: as §2
# P. aeruginosa = format: cell-based, Pseudomonas aeruginosa; settings: P. aeruginosa H744; MIC of nalidixic acid with peptide at ¼ MIC
# How it was run: as §2
# WI38 = settings: MTT, 24 hours with peptide; normal fibroblast line
# in vitro [11] = settings: human, WI38 normal lung fibroblast cells, LD50 WI38, WI38 normal lung fibroblast line, MTT, 24 hours with peptide
# HeLaS3 = test: Anti-cancer assay, MTT, LD50; format: cell-based; settings: 24 hours with peptide, cervical carcinoma
# Text: as §1
# [12] = chloramphenicol + peptide at ¼ MIC
# [13] = nalidixic acid + peptide at ¼ MIC, FIC=0.25+MIC comb/MIC alone
Molecule,MIC P. aeruginosa H374 (P. aeruginosa H374 [1]),MIC P. aeruginosa H187 ([2]; Table 8),MIC P. aeruginosa H187 ([2]; Table 9),MIC P. aeruginosa Tb 100609 [3],MIC P. aeruginosa Tb 105663 [4],MIC C. glabrata ATCC15126 [5],paerug9027 (MIC) [6] [µg/mL],staph6538 (MIC) [7] [µg/mL],yeast (MIC or MFC) [8] [µg/mL],S. aureus (MRSA) MIC (S. aureus (MRSA)) [µg/mL],S. epidermidis C621 MIC (S. epidermidis C621) [µg/mL],S. pyogenes M76 MIC (S. pyogenes M76) [µg/mL],S. pyogenes MIC (S. pyogenes ATCC19615),S. pneumoniae MIC (S. pneumoniae C718) [µg/mL],S. pneumoniae MIC (S. pneumoniae C719),LD50 BMKC (BMKC) [µg/mL],H1299 LD50 (H1299) [µg/mL],LD50 MCF7 (MCF7) [µg/mL],PC3 LD50 (PC3) [µg/mL],HC50 at 1 h (in vitro [9]) [µg/mL],also measured
FAKKLKKLAKLAKKL-NH2 [P46 (28)],4,8 and 16,16,16,32,32,–,–,–,–,–,–,–,–,–,–,–,–,–,–,–
CC(C)C[C@H](NC(=O)[C@H](C)NC(=O)[C@H](CC(C)C)NC(=O)[C@H](CCCCN)NC(=O)[C@H](C)NC(=O)[C@H](CC(C)C)NC(=O)[C@H](CCCCN)NC(=O)[C@H](CCCCN)NC(=O)[C@H](C)NC(=O)[C@H](CC(C)C)NC(=O)[C@H](CCCCN)NC(=O)[C@H](C)NC(=O)[C@H](CC(C)C)NC(=O)[C@H](CCCCN)NC(=O)[C@H](CCCCN)NC(=O)[C@H](C)NC(=O)[C@@H](N)Cc1ccccc1)C(=O)O [P61 (41)],4,8,8,16,8,32,–,–,–,–,–,–,–,–,–,–,–,–,–,–,–
FAKLLAKLAKKL-NH2 [P49],–,–,–,–,–,–,200,10,50,64,8,8,8,64,32,115,140,40,77,225,LD50 SW480 (SW480): 100 µg/mL; MIC Cm-comb. (P. aeruginosa H374 [10]): 8 µg/mL; MIC Nal-comb. (P. aeruginosa H374 [10]): 2500 µg/mL; FIC Index (P. aeruginosa H374 [10]; [12]): 0.75; FIC Index (P. aeruginosa H374 [10]; [13]): 0.75; FIC Index (P. aeruginosa H774): 1.25; MIC Nal-comb. (P. aeruginosa): 624 µg/mL; WI38 LD50 (WI38): 135 µg/mL; CC50 at 24 h (in vitro [11]): 135 µg/mL
"CC[C@H](C)[C@H](N)C(=O)N[C@@H](CC(C)C)C(=O)N1CCC[C@H]1C(=O)N[C@@H](Cc1c[nH]c2ccccc12)C(=O)N[C@@H](CCCCN)C(=O)N[C@@H](Cc1c[nH]c2ccccc12)C(=O)N1CCC[C@H]1C(=O)N[C@@H](Cc1c[nH]c2ccccc12)C(=O)N[C@@H](Cc1c[nH]c2ccccc12)C(=O)N1CCC[C@H]1C(=O)N[C@@H](Cc1c[nH]c2ccccc12)C(=O)N[C@@H](CCCNC(=N)N)C(=O)N[C@@H](CCCNC(=N)N)C(N)=O [P63, reference compound]",–,–,–,–,–,–,–,–,–,32,16,8,8,128,16,200,270,64,290,375,HeLaS3 LD50 (HeLaS3): 345 µg/mL; LD50 SW480 (SW480): 345 µg/mL
CC(C)C[C@H](NC(=O)[C@H](C)NC(=O)[C@H](CC(C)C)NC(=O)[C@H](C)NC(=O)[C@H](CC(C)C)NC(=O)[C@H](CCCCN)NC(=O)[C@H](C)NC(=O)[C@H](CC(C)C)NC(=O)[C@H](CCCCN)NC(=O)[C@H](CCCCN)NC(=O)[C@H](C)NC(=O)[C@H](CC(C)C)NC(=O)[C@H](CCCCN)NC(=O)[C@H](CCCCN)NC(=O)[C@H](CC(C)C)NC(=O)[C@H](CCCCN)NC(=O)[C@H](CCCCN)NC(=O)[C@H](C)NC(=O)[C@H](CC(C)C)NC(=O)[C@H](CCCCN)NC(=O)[C@H](CCCCN)NC(=O)[C@H](C)NC(=O)[C@@H](N)Cc1ccccc1)C(N)=O [P11 (4)],16,–,16,16,16,–,–,–,–,–,–,–,–,–,–,–,–,–,–,–,–
"FAKLLAKLAKKAL-NH2 [P54, FAKLLAKLAKKAL-NH2]",–,–,–,–,–,–,50,5,50,16,8,8,8,64,64,90,80,60,90,250,HeLaS3 LD50 (HeLaS3): 190 µg/mL; MIC Cm-comb. (P. aeruginosa H374 [10]): 16 µg/mL; MIC Nal-comb. (P. aeruginosa H374 [10]): 5000 µg/mL; FIC Index (P. aeruginosa H374 [10]; [12]): 1.25; FIC Index (P. aeruginosa H374 [10]; [13]): 1.25; FIC Index (P. aeruginosa H774): 1.25; MIC Nal-comb. (P. aeruginosa): 624 µg/mL; WI38 LD50 (WI38): 97 µg/mL; CC50 at 24 h (in vitro [11]): 97 µg/mL
